Reference: patent US10695387B2, “Extracts of microalgae and plants for regulating sebum production” (Cutech SRL, priority 2014, dated 2020)

Tested on: human sebaceous glands (hSGs)
Assay: Ex-vivo culture of human sebaceous glands (hSGs), quantification of sebum content (lipids/proteins) vs control
Type: cell-based
Conditions: positive control
Source text: All the reported examples are intended to show the modulation of sebum production exerted by the experimental preparations on human hSGs microdissected and cultivated up to day 6. At the end of the culture time, the sebum is extracted and quantified from each experimental group of hSGs and then normalized by the proteins extracted from the residual hSG material (mg lipids/mg proteins). As a result, the biological activity of the tested compounds is inferred by comparing the ratio lipids/proteins of the treated glands with that of the control group.
Using micro-scissors and tweezers, hSGs were isolated from the pilosebaceous units of a scalp skin sample. They were seeded in 24-well plates at the density of 8 hSGs/well and then cultivated in 500 μl of modified William E medium. After 24 hours of culture the viability of the hSGs was assessed by means of resazurine assay. Briefly, each hSGs group was transferred onto a microplate well with 200 μl of 10% resazurin culture medium for 2 hours. During this period the resazurin, a non-fluorescent blue dye, is reduced by living cells to the pink coloured and highly red fluorescent resorufin. At the end of the incubation, the medium was withdrawn and analyzed for the resazurin fluorescence in a plate reader ([…]). The fluorescence signal positively correlates with the hSGs viability. Since the resazurin test is not toxic, the hSGs were then seeded in a 24-well plate and cultivated with the experimental culture media in order to start the treatments. The control received William E medium appropriately modified, while the samples submitted to experimental treatments received the same medium supplemented with experimental extracts. The culture medium was renewed every other day. After six days of organ culture, the viability of the hSGs was again assessed via resazurine assay and then, having attested their good viability, each group of hGSs was collected and analyzed for quantifying the sebum content.
Each hSG group was homogenized in 100 μl of isopropyl alcohol;
the sample was centrifuged at 14,000 G for 5 minutes and then the supernatant (containing the extracted sebum) was collected;
the sebum extract was analyzed in triplicate with a Direct Detect IR Spectrometer (Millipore), which provided the total lipid concentration of the supernatant (mg/ml);
the total lipids of the hSGs was quantified multiplying the supernatant lipid concentration (indention 3) by the volume of isopropyl alcohol adopted for the lipid extraction (indention 1);
the pellet remaining from indention 2 was dried by means of a vacuum dry evaporator and then again homogenized in 50 μl of proteolytic buffer (20 mM Tris/HCl pH 7.5, 150 mM NaCl, 2 mM EDTA, 0.5% Triton X-100, 2 mM DTT, 1% protease inhibitor cocktail);
after an appropriate incubation time, this extractive mixture was centrifuged at 14,000 G for 10 minutes and the supernatant was collected and analyzed in triplicate with a Direct Detect IR Spectrometer (Millipore);
the obtained total protein concentration was multiplied by the extractive volume (indention 5) in order to quantify the total proteins of the hSGs;
the total lipid amount (indention 4), i.e. the amount of sebum, was divided by the total proteins (indention 7) in order to obtain the normalized amount of lipids per mg of proteins (mg of lipids/mg of proteins).
The amounts of normalized lipids obtained from the treated groups, i.e. the sebum produced by each group of hSGs, were expressed in percentages with respect to the value obtained in the control group, in order to point out the regulatory effect performed by the experimental treatment.

COc1cc(CNC(=O)CCCC/C=C/C(C)C)ccc1O [Capsaicin]
Sebum content in hSGs, Average, % ratio of the control group performance (Table 2 experiment, 5 μM): 90.3% | Sebum content in hSGs, Average, % ratio of the control group performance (Table 5 experiment, Amount 0): 68.5% | Sebum content in hSGs, Average, % ratio of the control group performance (Table 6 experiment (different donor), Amount 0): 59.2% | Sebum content in hSGs, Average, % ratio of the control group performance (Table 7 experiment, Amount 0): 97.4% | Sebum content in hSGs, Average, % ratio of the control group performance (Table 8 experiment, Amount 0): 91.9% | Sebum content in hSGs, Average, % ratio of the control group performance (Table 10 experiment, 5 μg/ml): 62.9%
